From US20230174667A1 (priority 2020, published 2023)

Columns and labels:
[1] = tested on: heat-inactivated SARS-CoV-2; assay: Inhibition of SARS-CoV-2 uptake into RAW 264.7 murine macrophages (flow cytometry); assay type: cell-based; conditions: co-administered with SARS-CoV-2
NF-κB [2] = assay: Inhibition of SARS-CoV-2-induced NF-κB activation in A549/NF-κB-luc cells (luciferase); assay type: cell-based, human
NF-κB [3] = assay: Inhibition of SARS-CoV-2-induced NF-κB activation in RAW 264.7/NF-κB-luc cells (luciferase); assay type: cell-based, murine; conditions: same agents as in the RAW 264.7 uptake test

| Molecule | inhibition of SARS-CoV-2 cellular uptake (percent inhibition, FIG. 7) [1] | inhibition of SARS-CoV-2-induced NF-κB activation (percent inhibition, FIG. 5) (NF-κB [2]) | inhibition of SARS-CoV-2-induced NF-κB activation (percent inhibition, FIG. 8) (NF-κB [3]) |
| --- | --- | --- | --- |
| Cn1c2ccccc2c2c3c(c4c5ccccc5n(CCC#N)c4c21)CNC3=O [Gö 6983, Gö 6976] | significantly (p<0.05) inhibited | significantly (p<0.05) inhibited | inhibited |
| NC(N)=NC(=O)c1nc(Cl)c(N2CCCCCC2)nc1N [hexamethylene amiloride] | significantly (p<0.05) inhibited | significantly (p<0.05) inhibited | inhibited |
| PRRAR peptide: PRRAR peptide from the heparin-binding motif of the S1 subunit of the SARS-CoV-2 spike protein (Pro681-Arg685) (UniProt P0DTC2 681-685, looked up, fragment) | significantly (p<0.05) inhibited | – | inhibited |
| SPRRARSV peptide: SPRRARSV (Ser680-Val687, includes the PRRAR heparin-binding motif) from the S1 subunit of the SARS-CoV-2 spike protein | – | significantly (p<0.05) inhibited | – |
| TAT peptide: amino acid sequence YGRKKRRQRRR, synthesized by PepScan | – | significantly (p<0.05) inhibited | – |
| heparan sulfate | significantly (p<0.05) inhibited | significantly (p<0.05) inhibited | inhibited |
| polyarginine: R8, amino acid sequence RRRRRRRR, synthesized by PepScan | – | significantly (p<0.05) inhibited | – |
| recombinant SDC4: recombinant SDC4, RnD Systems, Cat. no. 2918-SD (protein, UniProt P31431 19-198, looked up) Syndecan-4: ESIRETEVIDPQDLLEGRYFSGALPDDEDVVGPGQESDDFELSGSGDLDDLEDSMIGPEVVHPLVPLDNHIPERAGSGSQVPTEPKKLEENEVIPKRISPVEESEDVSNKVSMSSTVQGSNIFERTEVLAALIVGGIVGILFAVFLILLLMYRMKKKDEGSYDLGKKPIYKKAPTNEFYA | significantly (p<0.05) inhibited | significantly (p<0.05) inhibited | inhibited |
